This passage reports cells survived results from article PMC7770674, “A Combinative Assembly Strategy Inspired Reversibly Borate-Bridged Polymeric Micelles for Lesion-Specific Rapid Release of Anti-Coccidial Drugs” (Nano-Micro Letters, 2020).

This series deals with Caco2 cells. Kind of series: In vitro cytotoxicity MTT assay. It is filed as cell-based, human. As to conditions: DIC concentration 100 μg mL^−1, 48 h. As for the experimental part: For cell studies, human colon cancer cell line Caco2 cells (Shanghai Institute of Biochemistry and Cell Biology, Chinese Academy of Sciences, Shanghai, China) were cultured in DMEM medium supplemented with 10% FBS, 100 U mL^−1 penicillin, and 100 μg mL^−1 streptomycin at 37 °C under an atmosphere of 5% CO2 and 95% relative humidity. In vitro cytotoxicity of free DIC, blank micelles and DIC-encapsulated micelles were evaluated by 3-(4,5-dimethylthiazol-2-yl)-2,5-diphenyltetrazolium bromide (MTT) assay. Caco2 cells were planted in 96-well plate at a density of 5 × 10^3 cells per well and cultured for another 24 h. The cells were treated with free DIC, PCS/DIC micelles, PCS + DIC mixture, SPCS/DIC micelles and SPCS + DIC mixture at a range of DIC concentrations (0.001–100 μg mL^−1), or PCS and SPCS blank micelles at equivalent concentrations of corresponding drug-loaded micelles for 48 h. Thereafter, 20 µL of MTT solution (5 mg mL^−1) was added to each well and incubated with cells for another 4 h at 37 °C. The culture medium was then removed, and the formed dark blue formazan crystals were dissolved with 100 µL of DMSO. The absorbance at 570 nm was recorded using a microplate reader (EL800, BIO-TEK Instruments Inc., USA). Untreated cells were used as control, and cell viability (%) was calculated according to Eq. (3).3 Cellviability(%)=Atest/Acontrol×100%
(Tetrazolium assays rely on reduction of a dye to a coloured formazan, in cell work by metabolically active cells.)

With `N#CC(c1ccc(Cl)cc1)c1c(Cl)cc(-n2ncc(=O)[nH]c2=O)cc1Cl` (stereo not shown) [Free DIC, Diclazuril], the cells survived result is recorded as “less than 10%”.
